According to patent US8673888B2, “Depsipeptide for therapy of kidney cancer” (The United States of America, represented by the Secretary, …, priority 2002, dated 2014):

Assays:
[1] = system: clear cell renal carcinoma; assay: Antineoplastic response in a patient with clear cell renal carcinoma (RECIST criteria); type: in vivo, human
Method: This patient was a person with a history of clear cell renal carcinoma that was diagnosed in 1996. The patient received a total of 10 doses of FR901228: FR901228 was administered at 9.10 mg/m^2 on day 1 and day 5 of the first cycle (21 days), 9.10 mg/m^2 on day 1 of the second cycle (21 days), 9.10 mg/m^2 on day 1 and day 5 of the third cycle (28 days), 9.10 mg/m^2 on day 1 of the fourth cycle (22 days), 12.70 mg/m^2 on day 1 of the fifth cycle (20 days), 17.8 mg/m^2 on day 1 of the sixth cycle (23 days), 17.8 mg/m^2 on day 1 of the seventh cycle (23 days) and 17.8 mg/m^2 on day 1 of the eighth cycle (21 days) by continuous infusion for 4 hours. The treatment effect was evaluated based on the RECIST criteria.

[2] = system: human kidney tumor (RXF-631L); assay: Antitumor effect on human renal tumor xenograft (RXF-631L) in nude mice; type: in vivo, mouse; conditions: RXF-631L s.c. xenograft in nude mice; 3.2 and 1.8 mg/kg i.v. q4d×3; FIG. 1
Method: A recommended amount of FR901228 was weighed, a solvent (10% HCO-60 (Nihon Surfactant Kogyo K.K./saline) was added and the mixture was ultrasonicated for dissolution. The positive control substance, Taxol, was dissolved in Cremophor EL (SIGMA/ethanol (1:1)) to a concentration of 24 mg/mL before test and preserved in refrigerator. When in use, a 9-fold amount of physiological saline was added to dilute the substance to 2.4 mg/mL (solvent component: 5% Cremophor EL-5% ethanol-90% saline).
For the antitumor activity test of the drug, BALB/cANnNCrj-nu/nu mice (female, 6-week-old) were purchased from Charles River Japan (Yokohama, Japan), and after acclimation for more than 1 week, subjected to the test. The mice were reared in an SPF environment, where free access to water and feed was allowed. […]
Fragments (3×3×3 mm) of RXF-631L tumor were subcutaneously implanted into the right flank of BALB/cANnNCrj-nu/nu mice. […] The tumor volume was calculated from the formula: tumor volume (mm^3)=½×L×W^2 where L and W represent the length and width of the tumor mass, respectively.
The administration was started on the day the mice were grouped (Day 0). […] The liquid amount of administration was calculated based on the body weight measured on the day of administration (0.1 mL/10 g body weight).
The tumor size (length, width) and body weight were measured twice a week from Day 0.

C/C=C1\NC(=O)[C@H]2CSSCC/C=C/[C@H](CC(=O)N[C@H](C(C)C)C(=O)N2)OC(=O)[C@H](C(C)C)NC1=O [FR901228]
treatment effect (RECIST criteria) ([1]; one patient, 9.10 mg/m^2 by 4 h continuous infusion, after the first two cycles): partial response | treatment effect (RECIST criteria) ([1]; same patient, 10 doses of 9.10-17.8 mg/m^2, after cycle 8): disease progression | growth of human kidney cancer in vivo (tumor size) [2]: suppressed the growth
